Assays:
[1] = tested on: AR^RARA mutant and UBR5; assay: Co-immunoprecipitation of UBR5 with AR-RARA mutants; format: cell-based, human; details: ± CI-4AS-1 and MG132
From the text: (§1) Blotting was done as described above.

[2] = tested on: androgen receptor (AR); assay: AR fluorescent reporter degradation; format: cell-based, human; details: n = 3; for AR reporter degradation, significance: CI-4AS-1 5, 10, 20 uM
Procedure: AR reporters with substitutions to the critical set of residues in the hydrophobic cleft (AR V713, V716, V730, and M734) were generated to match those found in RARA, RXRA, or GR. The wild-type AR reporter was not degraded following treatment with the synthetic AR agonist CI-4AS-1. […] Taken together, the data underscore the essentiality of the NR hydrophobic cleft for UBR5 binding and NR degradation.
Cells were analyzed for GFP vs mCherry expression.

[3] = tested on: GR with NCOA2 and UBR5; assay: Co-immunoprecipitation time course for GR; format: cell-based, human; details: U937 GFP-GR, 0, 6, 12, 16, 24 h dexamethasone
Procedure: We performed time course co-immunoprecipitation experiments for GR and blotted for NCOA2, GR, and UBR5 at 0, 6, 12, 16, and 24 h following dexamethasone treatment. […] Unlike RARA, which binds constitutively to chromatin, GR is sequestered in the cytoplasm and rapidly translocates to the nucleus following agonist binding.[44],[45]
as §1

[4] = tested on: GR and UBR5 on chromatin in A549 cells; assay: ChIP-seq of GR and UBR5 in A549 cells; format: cell-based, human
Procedure: Cell lines were expanded (up to 50 million), treated with ligand, and incubated at 37 °C. Cells were pelleted by centrifugation for 5 minutes, washed twice with cold PBS, and resuspended, in 5 ml of room temperature PBS. 20 μl of 0.5M Disuccinimidyl glutarate (DSG) (ThermoFisher), was added and incubated for 30 minutes at room temperature. Cells were pelleted by centrifugation and resuspended in 8.325 ml of PBS and 8.325 ml of 2% formaldehyde and incubated for 30 minutes at room temperature. Cross-linking was quenched by the addition of 1665 μl of 1 M Tris-HCl pH 8.0 and 832.5 μl of 2.5 M glycine. Cells were pelleted and washed twice with PBS. Cross-linked cells were resuspended in LB1 Buffer (50mM HEPES-KOH, pH7.5, 140mM NaCl, 1mM EDTA, 10% Glycerol, 0.5% NP-40, 0.25% Triton X-100 in distilled water) and rotated for 10 minutes at 4C. Cells were pelleted and resuspended in LB2 (10mM Tris-HCl, pH 8.0, 200mM NaCl, 1mM EDTA, 0.5mM EGTA in distilled water) and rotated for 10 minutes at 4C. Cells were pelleted and resuspended in LB3 (10mM Tris-HCL, pH 8.0, 100mM NaCl, 1mM EDTA, 0.5mM EGTA, 0.1% Na-deoxycholate, 0.5% Na-Lauroylsarcosine, 1% Triton X-100, in distilled water) sonicated (Covaris, E220). […] Fragment length and concentrations were assessed using TapeStation (Agilent) and Qubit (ThermoFisher), and libraries were sequenced on an Illumina NextSeq 550 sequencer. […]

[5] = tested on: dexamethasone-regulated gene expression in A549 cells; assay: RNA sequencing of A549 cells; format: cell-based, human; details: A549, 0, 24, 48 h
Procedure: Cell lines were expanded, treated with ligand, and incubated at 37C. Cells were pelleted by centrifugation for 5 minutes, washed with cold PBS, and RNA was isolated by RNeasy kit (Qiagen) per manufacturer’s instructions. RNA was sent to Novogene for library preparation and sequencing, or prepared for sequencing (NEBNext, New England Biolabs) and sequenced on an Illumina NextSeq 550 sequencer.
Paired-end reads were aligned to the hg38.p13[81],[82] reference genome with the STAR[83] (v5.2.7b) aligner as part of the RSEM[99] command line tool. Gene transcript abundance was further quantified from aligned fragments using RSEM to generate a gene-by-sample matrix of expected counts. Differential expression was tested, as with the ChIP-seq data, using the DESeq[88],[93]2 and ashr[94] pipeline, this time calculating sample-specific scale factor offset using the method of median-ratio as implemented in the R package EBSeq[100] (v1.36.0). For plotting in heatmaps, genes were selected based on ChIP-seq peak annotation and subset.

[6] = tested on: GR and UBR5; assay: UBR5/GR interaction in cells (BRET); format: cell-based, human; details: ± dexamethasone, n = 3
From the text: Bioluminescence resonance energy transfer (BRET) experiments were done using the NanoBRET PPI kit (Promega, N1821) according to manufacturer’s instructions.

[7] = tested on: GR; assay: GR degradation (western blot A549; GFP-GR reporter); format: cell-based, human
Procedure: Reporter cell lines were seeded in triplicate at a density of 1 million cells/ml in 100 μl per well in a 96 well plate and measured once. Ligand was added by Digital Dispenser (Tecan), and incubated at 37°C for the appropriate time before reading by flow cytometry. Cells were analyzed for GFP vs mCherry expression. GFP expression was normalized to mCherry signal and ligand treatments were compared to DMSO controls.
Membranes were blocked for 30 minutes to 1 hour at room temperature in Odyssey Blocking Buffer/PBS (LI-COR Biosciences), and incubated with primary antibodies at 4 °C overnight. Stained membranes were washed three times in Tris-buffered saline with Tween 20 (TBS-T) and incubated for 1 hour at room temperature with secondary IRDye-conjugated antibodies (LI-COR Biosciences). Membranes were washed three times in TBS-T before imaging (Odyssey Imaging System, LI-COR Biosciences).

[8] = tested on: UBR5-ER; assay: In vitro FLAG-UBR5 pull-down of His-tagged ER; format: binding, human; details: 50 μM ER ligand
Procedure: 12 μL of FLAG M2 slurry were equilibrated with binding buffer (25 mM HEPES pH 7.4, 125 mM NaCl, 0.05% TWEEN-20). The resin was pelleted and excess buffer removed. 60 μL of fresh binding buffer was re-added, followed by addition of 15 pmol (2.5 μL ofa6 μM solution) of purified FLAG-UBR5 protein and incubated on a rotating wheel at 4°C for 60–90 minutes. The resin was pelleted, excess buffer removed, and 150 μL fresh binding buffer (supplemented with 50 μM ligand of interest or DMSO) added, followed by 150 pmol protein (binding partner protein of interest) and incubated for another 60 minutes. The resin was pelleted, excess buffer removed and washed with 400 μL of binding buffer (supplemented with ligand of interest or DMSO), and this process was repeated three times. The resin was pelleted, excess buffer removed and 45 μL of binding buffer supplemented with 1 mg/mL 3xFLAG peptide was added to elute proteins over 30 minutes on a rotating wheel at room temperature. The resin was pelleted, and 40 μL of the supernatant was collected and mixed with 12 μL of 5xSDS gel loading buffer. 6 μL of these samples were applied to SDS-PAGE on a 4–20% gradient gel (Biorad). The gel was transferred to a nitrocellulose membrane using the Trans-Blot Turbo Transfer System (Biorad). […]

[9] = tested on: androgen receptor (AR); details: testosterone, ref [48]-[50]; cited from earlier work
From the text: Instead, it is shuttled […] the nucleus following agonist binding and transcriptional activation.[48]–[50] The hydrophobic cleft of AR has several amino acid differences from other NRs, which preferentially accommodate bulkier FxxLF motifs instead of the classic LxxLL.[51],[52] We hypothesized that these sequence differences might also prevent UBR5-mediated degradation and asked whether altering the hydrophobic cleft in AR could c ...

## CN1C(=O)C=C[C@]2(C)[C@H]3CC[C@]4(C)[C@@H](C(=O)Nc5ccccc5Cl)CC[C@H]4[C@@H]3CC[C@@H]12 [CI-4AS-1]
[1]
  UBR5 binding to AR^RARA mutants: strengthened binding in the presence of agonist
[2]; AR V713F V730L M734V (RXR matched)
  AR reporter degradation, significance: **** (**** p<0.00005)
[2]; AR V713I V730I M734I (RARA matched)
  AR reporter degradation, significance: ** (**p<0.005)
[2]; AR V713I V730L (GR matched)
  AR reporter degradation, significance: **** (**** p<0.00005)
[2]; hydrophobic cleft matched to RARA, RXRA or GR
  degradation of mutant AR reporters: efficiently degraded
[2]; wild-type AR
  degradation of wild-type AR reporter: not degraded

## C[C@@H]1C[C@H]2[C@@H]3CCC4=CC(=O)C=C[C@]4(C)[C@@]3(F)[C@@H](O)C[C@]2(C)[C@@]1(O)C(=O)CO [dexamethasone]
[3]
  sequential binding of NCOA2 and UBR5 to GR: GR sequentially bound NCOA2 and then UBR5
[4]; A549, 15 min and 24 h dexamethasone
  GR ChIP-seq peaks: strikingly gained 15 min after addition of dexamethasone and subsequently decreased following sustained (24 h) dexamethasone treatment
[4]; A549, 15 min dexamethasone
  UBR5 ChIP-seq peaks: strongly increased after 15 min of dexamethasone treatment
[5]
  effect of UBR5 knockdown on dexamethasone-regulated gene expression: alter dexamethasone-regulated gene expression
[6]
  UBR5 binding to GR in cells: promoted binding of UBR5 to GR in cells
[7]; A549 western blot and reporter
  effect of UBR5 shRNAs on GR degradation: rescued GR degradation
[7]; GFP-GR mutants, likewise mutation of the UBR5 HECT domain
  GR reporter degradation with predicted degron (cleft) mutations: impaired dexamethasone-induced GR degradation

## C[C@]12CC[C@@H]3c4ccc(O)cc4CC[C@H]3[C@@H]1CC[C@@H]2O [estradiol, beta-Estradiol]
[8]
  UBR5-ER interaction: induced by estradiol

## C[C@]12CC[C@H]3[C@@H](CCC4=CC(=O)CC[C@@]43C)[C@@H]1CC[C@@H]2O [testosterone]
[9]
  AR stability / ligand-induced degradation: stabilized by its endogenous ligand testosterone and does not undergo ligand-induced degradation
